Literature values in patent CN101647784A, “卡马西平缓释片及其制备方法” (Beijing Kexin Bicheng Medicine Technology Development Co Ltd, priority 2008, dated 2010).

Conditions: early epilepsy and single seizures; 406 subjects, immediate versus deferred treatment

NC(=O)N1c2ccccc2C=Cc2ccccc21 [卡马西平]
显著影响: effect on time to 1-year remission | effect on time to 2-year remission | effect on time to first seizure
